The values below come from PubChem BioAssay AID1918943 (Molecular Pharmacology Branch, DTP, NCI, 2023).

Several values for one entry are separate records, joined by “and”; a condition that tells them apart may be missing. Identical values can stand only once. Where only a bound is given, the exact number is not on record here.

The experiment relates to 855422-203-R-J1-PDC complex spheroid viability. The experiment can be described thus: Anticancer human tumor 855422-203-R-J1-PDC patient-derived bladder carcinoma cell line growth inhibition. The settings on record: for viability, T/C: stronger effect = lower value. The procedure, abridged:
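Drug combinations with the LSD1 inhibitor iadademstat tested on tumor cells co-cultured as spheroids with endothelial cells and mesenchymal stem cells. Concentrations descended in half-log increments from clinical Cmax or 10 microM.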

[1] abbreviates: curve of first compound, second compound 0.1 µM.
[2] abbreviates: curve of first compound, second compound 0.316 µM.
Setting [3] is: curve of first compound, second compound 1 µM.
Where [4] appears, read: curve of first compound, second compound 3.16 µM.
The mark [5] stands for this setting: curve of first compound, second compound 10 µM.
The mark [6] stands for this setting: second compound 0.1 µM, first compound 0.0316 µM.
Setting [7] is: second compound 0.1 µM, first compound 0.1 µM.
Setting [8] is: second compound 0.1 µM, first compound 0.316 µM.
Where [9] appears, read: second compound 0.1 µM, first compound 1 µM.
Where [10] appears, read: second compound 0.1 µM, first compound 3.16 µM.
The mark [11] stands for this setting: second compound 0.1 µM, first compound 10 µM.
Where [12] appears, read: second compound 0.316 µM, first compound 0.0316 µM.
The mark [13] stands for this setting: second compound 0.316 µM, first compound 0.1 µM.
[14] abbreviates: second compound 0.316 µM, first compound 0.316 µM.
The mark [15] stands for this setting: second compound 0.316 µM, first compound 1 µM.
Where [16] appears, read: second compound 0.316 µM, first compound 3.16 µM.
The mark [17] stands for this setting: second compound 0.316 µM, first compound 10 µM.
Setting [18] is: second compound 1 µM, first compound 0.0316 µM.
The mark [19] stands for this setting: second compound 1 µM, first compound 0.1 µM.
[20] abbreviates: second compound 1 µM, first compound 0.316 µM.
The mark [21] stands for this setting: second compound 1 µM, first compound 1 µM.
Setting [22] is: second compound 1 µM, first compound 3.16 µM.
Setting [23] is: second compound 1 µM, first compound 10 µM.
Where [24] appears, read: second compound 3.16 µM, first compound 0.0316 µM.
Setting [25] is: second compound 3.16 µM, first compound 0.1 µM.
Where [26] appears, read: second compound 3.16 µM, first compound 0.316 µM.
[27] abbreviates: second compound 3.16 µM, first compound 1 µM.
Where [28] appears, read: second compound 3.16 µM, first compound 3.16 µM.
[29] abbreviates: second compound 3.16 µM, first compound 10 µM.
Setting [30] is: second compound 10 µM, first compound 0.0316 µM.
Where [31] appears, read: second compound 10 µM, first compound 0.1 µM.
[32] abbreviates: second compound 10 µM, first compound 0.316 µM.
[33] abbreviates: second compound 10 µM, first compound 1 µM.
The mark [34] stands for this setting: second compound 10 µM, first compound 3.16 µM.
Setting [35] is: second compound 10 µM, first compound 10 µM.
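Further: drug exposure lasted 7 days starting on day 3 after seeding.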
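Wherever viability, T/C is given: luminescence viability as percent of DMSO vehicle wells = 100%.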

`COc1ccc([C@@H](O)c2cc(-c3ncnc4cc(N5CCOCC5)ccc34)c(F)cc2Cl)nn1` + NC1CC1c1ccc(-c2cccc(O)c2)cc1: the half-inhibitory concentration (IC50) under setting [1] was found to be 5.2 µM; the IC50 under setting [2] was 4.86 µM; the 50% inhibitory concentration (IC50) under setting [3] was determined as 4.32 µM; the IC50 under setting [4] came to 3.56 µM; the concentration for half-maximal inhibition (IC50) under setting [5] was found to be 2.74 µM. Besides, the viability, T/C runs as follows: under setting [6], 86.7%; under setting [7], 90.9%; under setting [8], 84.9%; under setting [9], 77.7%; under setting [10], 62.1%; under setting [11], 34.4%. Besides, the viability, T/C under setting [12] was 94.5%; the viability, T/C under setting [13] was 88.2%; the viability, T/C under setting [14] is 90.4%; the viability, T/C under setting [15] is 80.2%; the viability, T/C under setting [16] is 57.9%; the viability, T/C under setting [17] is 36.7%. Also, the viability, T/C is 84.4% under setting [18]; 88.8% under setting [19]; 79.8% under setting [20]; 75.2% under setting [21]; 54% under setting [22]; 38.2% under setting [23]. Besides, the viability, T/C is, setting by setting: under setting [24], 88.6%; under setting [25], 93.9%; under setting [26], 77.3%; under setting [27], 69.8%; under setting [28], 51.8%; under setting [29], 35.1%. Besides, the viability, T/C is 83.3% under setting [30]; 77.6% under setting [31]; 75.2% under setting [32]; 71.3% under setting [33]; 46.6% under setting [34]; 29.9% under setting [35].

For the molecule `O=C(c1cc(Cc2n[nH]c(=O)c3ccccc23)ccc1F)N1CCN(C(=O)C2CC2)CC1`, the viability, T/C by setting is: (compound 0.0316 µM) 88.5% and 98.6%; (compound 0.1 µM) 94.1% and 111%; (compound 0.316 µM) 96% and 110%; (compound 1 µM) 88.8% and 98.8%; (compound 3.16 µM) 86.5% and 91.7%; (compound 10 µM) 63.3% and 76.1%. Moreover, the IC50 (curve of compound) is greater than 10 µM.

Regarding `CCc1c2c(nc3ccc(O)cc13)-c1cc3c(c(=O)n1C2)COC(=O)[C@]3(O)CC`, the viability, T/C (compound 0.000949 µM) was 14.2% and 14.1%; the viability, T/C (compound 0.003 µM) was 10.3% and 11.1%; the viability, T/C (compound 0.00949 µM) was 6.95% and 8.29%; the viability, T/C (compound 0.03 µM) is 5.21% and 4.8%; the viability, T/C (compound 0.0949 µM) was 3.58% and 2.82%; the viability, T/C (compound 0.3 µM) was 1.67% and 10.8%. Further, under “curve of compound”, the IC50 was less than 0.000949 µM.

`Nc1ccccc1NC(=O)c1ccc(CNC(=O)OCc2cccnc2)cc1` + NC1CCC(NC2CC2c2ccccc2)CC1: the concentration for half-maximal inhibition (IC50) reads like this: under setting [1], 1.34 µM; under setting [2], 1.43 µM; under setting [3], 1.37 µM; under setting [4], 1.39 µM; under setting [5], 1.06 µM. The viability, T/C was 94.5% (second compound 0.1 µM, first compound 0.00949 µM); 85% (second compound 0.1 µM, first compound 0.03 µM); 93.3% (second compound 0.1 µM, first compound 0.0949 µM); 96.1% (second compound 0.1 µM, first compound 0.3 µM); 66.1% (second compound 0.1 µM, first compound 0.949 µM); 12.3% (second compound 0.1 µM, first compound 3 µM). Moreover, the viability, T/C (second compound 0.316 µM, first compound 0.00949 µM) was 93.5%; the viability, T/C (second compound 0.316 µM, first compound 0.03 µM) is 87.5%; the viability, T/C (second compound 0.316 µM, first compound 0.0949 µM) was 91.5%; the viability, T/C (second compound 0.316 µM, first compound 0.3 µM) is 95%; the viability, T/C (second compound 0.316 µM, first compound 0.949 µM) was 73.1%; the viability, T/C (second compound 0.316 µM, first compound 3 µM) was 9.06%. The viability, T/C reads like this: (second compound 1 µM, first compound 0.00949 µM) 93.2%; (second compound 1 µM, first compound 0.03 µM) 90.9%; (second compound 1 µM, first compound 0.0949 µM) 98%; (second compound 1 µM, first compound 0.3 µM) 95.9%; (second compound 1 µM, first compound 0.949 µM) 69.5%; (second compound 1 µM, first compound 3 µM) 9.07%. Besides, the viability, T/C (second compound 3.16 µM, first compound 0.00949 µM) is 84.6%; the viability, T/C (second compound 3.16 µM, first compound 0.03 µM) is 84.2%; the viability, T/C (second compound 3.16 µM, first compound 0.0949 µM) is 87.8%; the viability, T/C (second compound 3.16 µM, first compound 0.3 µM) was 85.5%; the viability, T/C (second compound 3.16 µM, first compound 0.949 µM) is 72%; the viability, T/C (second compound 3.16 µM, first compound 3 µM) was 5.75%. For the same molecule, the viability, T/C by setting is: (second compound 10 µM, first compound 0.00949 µM) 88.7%; (second compound 10 µM, first compound 0.03 µM) 81.2%; (second compound 10 µM, first compound 0.0949 µM) 86.2%; (second compound 10 µM, first compound 0.3 µM) 87.3%; (second compound 10 µM, first compound 0.949 µM) 55.2%; (second compound 10 µM, first compound 3 µM) 1.52%.

With `CC1(C)CCC(CN2CCN(c3ccc(C(=O)NS(=O)(=O)c4ccc(NCC5CCOCC5)c([N+](=O)[O-])c4)c(Oc4cnc5[nH]ccc5c4)c3)CC2)=C(c2ccc(Cl)cc2)C1` + NC1CC1c1ccc(-c2cccc(O)c2)cc1, the half-maximal inhibitory concentration (IC50) stood at 6.25 µM under setting [1]; 6.32 µM under setting [2]; 5.81 µM under setting [3]; 5.77 µM under setting [4]; 5.48 µM under setting [5]. Moreover, the viability, T/C is 90.2% under setting [6]; 104% under setting [7]; 93.5% under setting [8]; 94.5% under setting [9]; 95.5% under setting [10]; 18.6% under setting [11]. For the same molecule, the viability, T/C runs as follows: under setting [12], 87%; under setting [13], 101%; under setting [14], 101%; under setting [15], 103%; under setting [16], 97.2%; under setting [17], 18.6%. Moreover, the viability, T/C is 85.9% under setting [18]; 92.1% under setting [19]; 90.3% under setting [20]; 91.5% under setting [21]; 88.4% under setting [22]; 15.8% under setting [23]. In addition, the viability, T/C is 85.4% under setting [24]; 87.3% under setting [25]; 89.4% under setting [26]; 91.1% under setting [27]; 94.6% under setting [28]; 13.8% under setting [29]. Moreover, the viability, T/C is 79.7% under setting [30]; 82.9% under setting [31]; 82.6% under setting [32]; 82.5% under setting [33]; 84.8% under setting [34]; 14.5% under setting [35].

As for `CC1(C)CCC(CN2CCN(c3ccc(C(=O)NS(=O)(=O)c4ccc(NCC5CCOCC5)c([N+](=O)[O-])c4)c(Oc4cnc5[nH]ccc5c4)c3)CC2)=C(c2ccc(Cl)cc2)C1`, the viability, T/C was 102% and 97.3% (compound 0.0316 µM); 105% and 94.6% (compound 0.1 µM); 104% and 110% (compound 0.316 µM); 103% and 107% (compound 1 µM); 80.6% and 83.9% (compound 3.16 µM); 17.9% and 15.2% (compound 10 µM). The 50% inhibitory concentration (IC50) (curve of compound) is 5.55 µM and 5.57 µM.
